Experimental data taken from patent US6706663B2, “Herbicidal 3-heterocyclic substituted benzisothiazole and benzisoxazole compounds” (Wyeth, priority 2000, dated 2004).

Experiments:
[1] = tested on: CHEAL (Chenopodium album); assay: Postemergence herbicidal evaluation; type: in vivo, L.; details: for CHEAL herbicidal rating: postemergence
How it was run: (§1)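 Seedlings grown for about two weeks were sprayed postemergence and then kept under standard greenhouse care. Injury was rated visually 4–5 weeks after treatment on a 0–9 scale against untreated controls, and ratings from repeat tests were averaged.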

[2] = tested on: AMBEL (Ambrosia artemisifolia); assay: Postemergence herbicidal evaluation; type: in vivo, L.; details: for AMBEL herbicidal rating: postemergence
How it was run: as §1

[3] = tested on: CASOB (Cassia obtusifolia); assay: Postemergence herbicidal evaluation; type: in vivo, L.; details: for CASOB herbicidal rating: postemergence
How it was run: as §1

[4] = tested on: SETVI (Setaria viridis); assay: Postemergence herbicidal evaluation; type: in vivo, (L.) Beau; details: for SETVI herbicidal rating: postemergence
How it was run: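 Visual injury score (0-9: stand, vigor, malformation, size, chlorosis, overall appearance vs untreated control) taken four to five weeks post-spray. Two-week-old seedlings received about 0.0040 to 1.000 kg/ha active compound in acetone/water with 0.5% TWEEN 20.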

[5] = tested on: IPOHE (Ipomoea hederacea); assay: Postemergence herbicidal evaluation; type: in vivo, (L.) Jacq.; details: for IPOHE herbicidal rating: postemergence
How it was run: as §1

[6] = tested on: ORYSAT (Rice, Tebonnet); assay: Preemergence herbicidal evaluation; type: in vivo, Oryza sativa, (L.) Tebonnet; details: rated 4-5 weeks after treatment
[7] = tested on: SAGPY (Sagittaria pygmaea); assay: Flooded paddy, preemergence weed control; type: in vivo, L.; details: rated 3-4 weeks after treatment, 0-9 rating scale
How it was run: (§2)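 Flooded silt loam pots, seeds in upper 0.5 cm, water held 1.5–3 cm deep; greenhouse; visual 0-9 score vs control.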

[8] = tested on: CYPSE (Cyperus serotinus); assay: Flooded paddy, preemergence weed control; type: in vivo, Rottb.; details: rated 3-4 weeks after treatment, 0-9 rating scale
How it was run: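 Seeds or propagules were planted 0.5 cm deep in silt loam and flooded to 1.5–3 cm. Compounds in 50/50 v/v aqueous/acetone were pipetted into the flood water at about 0.0080 to 0.1250 kg/ha. After 3–4 weeks in the greenhouse, effect was rated visually on a 0–9 scale versus untreated control.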

[9] = tested on: CYPIR (Cyperus iria); assay: Flooded paddy, preemergence weed control; type: in vivo; details: rated 3-4 weeks after treatment, 0-9 rating scale
How it was run: as §2

[10] = tested on: ABUTH (Abutilon theophrasti); assay: Postemergence herbicidal evaluation; type: in vivo, Medic.; details: for ABUTH herbicidal rating: postemergence
How it was run: as §1

[11] = tested on: ORYSAT (Rice, Tebonnet); assay: Postemergence herbicidal evaluation; type: in vivo, Oryza sativa, (L.) Tebonnet; details: for ORYSAT herbicidal rating: postemergence
How it was run: as §1

[12] = tested on: ECHCG (Echinochloa crus-galli); assay: Preemergence herbicidal evaluation; type: in vivo, (L.) Beau; details: rated 4-5 weeks after treatment
How it was run: (§3)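 Greenhouse preemergence test: freshly planted cups were sprayed once with an aqueous acetone solution of compound. Injury was judged visually on a 0–9 scale relative to a control, four to five weeks later.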

[13] = tested on: SETVI (Setaria viridis); assay: Preemergence herbicidal evaluation; type: in vivo, (L.) Beau; details: rated 4-5 weeks after treatment
How it was run: as §3

[14] = tested on: CHEAL (Chenopodium album); assay: Preemergence herbicidal evaluation; type: in vivo, L.; details: rated 4-5 weeks after treatment
How it was run: as §3

[15] = tested on: AMBEL (Ambrosia artemisifolia); assay: Preemergence herbicidal evaluation; type: in vivo, L.; details: rated 4-5 weeks after treatment
How it was run: as §3

[16] = tested on: CASOB (Cassia obtusifolia); assay: Preemergence herbicidal evaluation; type: in vivo, L.; details: rated 4-5 weeks after treatment
How it was run: as §3

[17] = tested on: MOOVA (Monochoria vaginalis); assay: Flooded paddy, preemergence weed control; type: in vivo, Presl.; details: rated 3-4 weeks after treatment, 0-9 rating scale
How it was run: as §2

[18] = tested on: TRZAWR (Wheat, Winter, cv Riband); assay: Postemergence herbicidal evaluation; type: in vivo, Triticum aestivum; details: for TRZAWR herbicidal rating: postemergence
How it was run: as §1

[19] = tested on: GALAP (Galium aparine); assay: Postemergence herbicidal evaluation; type: in vivo; details: for GALAP herbicidal rating: postemergence
How it was run: as §1

[20] = tested on: GALAP (Galium aparine); assay: Preemergence herbicidal evaluation; type: in vivo; details: preemergence, rated 4-5 weeks after treatment
How it was run: as §3

[21] = preemergence, rate 0.0620 kg/ha
[22] = preemergence, rate 0.1250 kg/ha
[23] = preemergence, rate 0.2500 kg/ha

## C[C@@H]1OC(c2nsc3ccc(-n4c(=O)cc(C(F)(F)F)n(C)c4=O)cc23)O[C@@H]1C (stereo partly drawn) [Compound 47, 3-[3-[(4R,5S)-4,5-dimethyl-1,3-dioxolan-2-yl]-1,2-benzisothiazol-5-yl]-1-methyl-6-(trifluoromethyl)uracil]
[1]; rate 0.0320 kg/ha
  Postemergence herbicidal rating, CHEAL: 9.0
[1]; rate 0.0620 kg/ha
  Postemergence herbicidal rating, CHEAL: 9.0
[2]; rate 0.0320 kg/ha
  Postemergence herbicidal rating, AMBEL: 9.0
[2]; rate 0.0620 kg/ha
  Postemergence herbicidal rating, AMBEL: 9.0
[3]; rate 0.0320 kg/ha
  Postemergence herbicidal rating, CASOB: 6.0
[3]; rate 0.0620 kg/ha
  Postemergence herbicidal rating, CASOB: 9.0
[4]; rate 0.0320 kg/ha
  Postemergence herbicidal rating, SETVI: 9.0
[4]; rate 0.0620 kg/ha
  Postemergence herbicidal rating, SETVI: 9.0
[5]; rate 0.0320 kg/ha
  Postemergence herbicidal rating, IPOHE: 9.0
[5]; rate 0.0620 kg/ha
  Postemergence herbicidal rating, IPOHE: 9.0
[6]; Rate 0.0620 kg/ha
  Preemergence herbicidal rating ORYSAT: 7.5
[6]; Rate 0.1250 kg/ha
  Preemergence herbicidal rating ORYSAT: 7.5
[6]; Rate 0.2500 kg/ha
  Preemergence herbicidal rating ORYSAT: 9.0
[7]; rate 0.0080 kg/ha
  herbicidal rating, SAGPY: 0.0
[7]; rate 0.0320 kg/ha
  herbicidal rating, SAGPY: 7.5
[7]; rate 0.1250 kg/ha
  herbicidal rating, SAGPY: 9.0
[8]; rate 0.0320 kg/ha
  herbicidal rating, CYPSE: 9.0
[8]; rate 0.1250 kg/ha
  herbicidal rating, CYPSE: 9.0
[9]; rate 0.0080 kg/ha
  herbicidal rating, CYPIR: 0.0
[9]; rate 0.0320 kg/ha
  herbicidal rating, CYPIR: 8.5
[9]; rate 0.1250 kg/ha
  herbicidal rating, CYPIR: 9.0
[10]; rate 0.0320 kg/ha
  Postemergence herbicidal rating, ABUTH: 9.0
[10]; rate 0.0620 kg/ha
  Postemergence herbicidal rating, ABUTH: 9.0
[11]; rate 0.0320 kg/ha
  Postemergence herbicidal rating, ORYSAT: 4.0
[11]; rate 0.0620 kg/ha
  Postemergence herbicidal rating, ORYSAT: 6.5
[12]; Rate 0.0620 kg/ha
  Preemergence herbicidal rating ECHCG: 9.0
[12]; Rate 0.1250 kg/ha
  Preemergence herbicidal rating ECHCG: 9.0
[12]; Rate 0.2500 kg/ha
  Preemergence herbicidal rating ECHCG: 9.0
[13]; Rate 0.0620 kg/ha
  Preemergence herbicidal rating SETVI: 9.0
[13]; Rate 0.1250 kg/ha
  Preemergence herbicidal rating SETVI: 8.5
[13]; Rate 0.2500 kg/ha
  Preemergence herbicidal rating SETVI: 9.0
[14]; Rate 0.0620 kg/ha
  Preemergence herbicidal rating CHEAL: 9.0
[14]; Rate 0.1250 kg/ha
  Preemergence herbicidal rating CHEAL: 9.0
[14]; Rate 0.2500 kg/ha
  Preemergence herbicidal rating CHEAL: 9.0
[15]; Rate 0.0620 kg/ha
  Preemergence herbicidal rating AMBEL: 9.0
[15]; Rate 0.1250 kg/ha
  Preemergence herbicidal rating AMBEL: 9.0
[15]; Rate 0.2500 kg/ha
  Preemergence herbicidal rating AMBEL: 9.0
[16]; Rate 0.0620 kg/ha
  Preemergence herbicidal rating CASOB: 4.5
[16]; Rate 0.1250 kg/ha
  Preemergence herbicidal rating CASOB: 7.5
[16]; Rate 0.2500 kg/ha
  Preemergence herbicidal rating CASOB: 9.0
[17]; rate 0.0320 kg/ha
  herbicidal rating, MOOVA: 9.0
[17]; rate 0.1250 kg/ha
  herbicidal rating, MOOVA: 9.0
[18]; rate 0.0320 kg/ha
  Postemergence herbicidal rating, TRZAWR: 5.0
[18]; rate 0.0620 kg/ha
  Postemergence herbicidal rating, TRZAWR: 6.0
[19]; rate 0.0320 kg/ha
  Postemergence herbicidal rating, GALAP: 9.0
[19]; rate 0.0620 kg/ha
  Postemergence herbicidal rating, GALAP: 9.0

## Cn1c(C(F)(F)F)cc(=O)n(-c2ccc3snc(C4OCC(C[S+](C)[O-])O4)c3c2)c1=O (stereo not shown) [Compound 88, 1-methyl-3-[3-[4-[(methylsulfinyl)methyl]-1,3-dioxolan-2-yl]-1,2-benzisothiazol-5-yl]-6-(trifluoromethyl)uracil]
[1]; rate 0.0320 kg/ha
  CHEAL herbicidal rating: 9.0
[1]; rate 0.0620 kg/ha
  CHEAL herbicidal rating: 9.0
[2]; rate 0.0320 kg/ha
  AMBEL herbicidal rating: 9.0
[2]; rate 0.0620 kg/ha
  AMBEL herbicidal rating: 9.0
[3]; rate 0.0320 kg/ha
  CASOB herbicidal rating: 5.0
[3]; rate 0.0620 kg/ha
  CASOB herbicidal rating: 9.0
[4]; rate 0.0320 kg/ha
  SETVI herbicidal rating: 9.0
[4]; rate 0.0620 kg/ha
  SETVI herbicidal rating: 9.0
[5]; rate 0.0320 kg/ha
  IPOHE herbicidal rating: 9.0
[5]; rate 0.0620 kg/ha
  IPOHE herbicidal rating: 9.0
[6]; [21]
  Preemergence herbicidal rating ORYSAT: 4.0
[6]; [22]
  Preemergence herbicidal rating ORYSAT: 5.0
[6]; [23]
  Preemergence herbicidal rating ORYSAT: 8.0
[7]; rate 0.0320 kg/ha
  SAGPY herbicidal rating: 0.0
[7]; rate 0.1250 kg/ha
  SAGPY herbicidal rating: 0.0
[9]; rate 0.0320 kg/ha
  CYPIR herbicidal rating: 0.0
[9]; rate 0.1250 kg/ha
  CYPIR herbicidal rating: 9.0
[10]; rate 0.0320 kg/ha
  ABUTH herbicidal rating: 9.0
[10]; rate 0.0620 kg/ha
  ABUTH herbicidal rating: 9.0
[11]; rate 0.0320 kg/ha
  ORYSAT herbicidal rating: 4.0
[11]; rate 0.0620 kg/ha
  ORYSAT herbicidal rating: 4.0
[12]; [21]
  Preemergence herbicidal rating ECHCG: 5.5
[12]; [22]
  Preemergence herbicidal rating ECHCG: 6.5
[12]; [23]
  Preemergence herbicidal rating ECHCG: 9.0
[13]; [21]
  Preemergence herbicidal rating SETVI: 5.5
[13]; [22]
  Preemergence herbicidal rating SETVI: 9.0
[13]; [23]
  Preemergence herbicidal rating SETVI: 9.0
[14]; [21]
  Preemergence herbicidal rating CHEAL: 9.0
[14]; [22]
  Preemergence herbicidal rating CHEAL: 9.0
[14]; [23]
  Preemergence herbicidal rating CHEAL: 9.0
[15]; [21]
  Preemergence herbicidal rating AMBEL: 9.0
[15]; [22]
  Preemergence herbicidal rating AMBEL: 9.0
[15]; [23]
  Preemergence herbicidal rating AMBEL: 9.0
[16]; [21]
  Preemergence herbicidal rating CASOB: 5.0
[16]; [22]
  Preemergence herbicidal rating CASOB: 9.0
[16]; [23]
  Preemergence herbicidal rating CASOB: 9.0
[17]; rate 0.0320 kg/ha
  MOOVA herbicidal rating: 0.0
[17]; rate 0.1250 kg/ha
  MOOVA herbicidal rating: 9.0
[18]; rate 0.0320 kg/ha
  TRZAWR herbicidal rating: 3.0
[18]; rate 0.0620 kg/ha
  TRZAWR herbicidal rating: 3.5
[20]; rate 0.0620 kg/ha
  Preemergence herbicidal rating GALAP: 7.0
[20]; rate 0.1250 kg/ha
  Preemergence herbicidal rating GALAP: 9.0
[20]; rate 0.2500 kg/ha
  Preemergence herbicidal rating GALAP: 9.0
[19]; rate 0.0320 kg/ha
  GALAP herbicidal rating: 9.0
[19]; rate 0.0620 kg/ha
  GALAP herbicidal rating: 9.0
